# Test results: paper PMC12257073 (Cancer Research Communications, 2025)
# Entries after “also recorded” stand apart in the source; their conditions may differ.
# Assay: Adverse events (treatment-related and all-cause) and dose-limiting toxicities, NCI CTCAE version 4.0
# Conditions: for Patients with treatment-related grade 3+ AEs: seven patients
# [1] = Group 2, all-cause adverse events, Missing Categories
# [2] = Group 2, all-cause adverse events, Skin and subcutaneous tissue disorders
# [3] = Group 2, all-cause adverse events, Vascular disorders
# [4] = group 1, 37 mg TP-0903 + decitabine
# [5] = group 1, TP-0903 37 mg/day + decitabine, n = 15
# [6] = group 2, 25 mg TP-0903 + decitabine
# [7] = group 2, TP-0903 25 mg/day + decitabine, n = 12
# [8] = overall, TP-0903 + decitabine, n = 27
# Experimental: The phase 1b portion of the study used a standard 3 + 3 dose-escalation design with a starting dose level 1 (DL1) of 37 mg oral daily TP-0903 (Supplementary Table S2) based on experience with 50 mg oral daily as a single agent in patients with solid tumors ([25]). Dose-limiting toxicities (DLT) were evaluated to establish the dose brought forward for an expansion cohort (phase 2). Seven patients were enrolled in the phase 1b study, which was completed in January 2021 with the decision to move forward with an expansion cohort of 37 mg oral daily. Across the phase 1b and phase 2 studies, 15 patients were enrolled and started on 37 mg TP-0903 oral daily on days 1 to 21 (group 1). […] One additional patient was enrolled at this time but was inadvertently started on 25 mg TP-0903 oral daily on days 1 to 21. […] In May 2021, an amendment was approved to allow enrollment of a new group 2 at 25mg oral daily on days 1 to 21 of TP-0903 (DL-1) in stage 2 of the phase 2 study.
# Clinical response was assessed according to the modified 2017 European LeukemiaNet AML criteria ([26]). The primary endpoint was achievement of CR within six cycles of therapy. Secondary endpoints included toxicity, duration of response, OS, and the proportion of eligible patients who effectively transitioned to allogeneic stem cell transplantation. Exploratory endpoints included pharmacokinetics (PK), correlative genetic, and biochemical data; correlations between morphologic remission, spectral flow cytometry, and mutational remission; and duration of remission or survival. […] Adverse events (AE) were graded according to the NCI Common Terminology Criteria for Adverse Events version 4.0 ([27]).
smiles,measurement,setting,value
"CN1CCN(Cc2ccc(Nc3ncc(Cl)c(Nc4ccccc4S(=O)(=O)N(C)C)n3)cc2)CC1.O=C(O)C(O)C(O)C(=O)O.O=C(O)C(O)C(O)C(=O)O [TP-0903, 2-(5-chloro-2-(4-((4-methylpiperazin-1-yl)methyl)phenylamino)pyrimidin-4-yl)amino-N,N-dimethylbenzene-1-sulfonamide di-tartrate salt]","Hypotension (intermittent), All",[1],1 (8.3)
same,"Hypotension (intermittent), Grade 1 2",[1],1 (8.3)
same,"Hypotension (intermittent), Grade 3+",[1],0 (0)
same,"INR - Increased, All",[1],0 (0)
same,"INR - Increased, Grade 1 2",[1],0 (0)
same,"INR - Increased, Grade 3+",[1],0 (0)
same,"Inflammation (bilateral knee), All",[1],1 (8.3)
same,"Inflammation (bilateral knee), Grade 1 2",[1],1 (8.3)
same,"Inflammation (bilateral knee), Grade 3+",[1],0 (0)
same,"Itching (intermittent), All",[1],1 (8.3)
same,"Itching (intermittent), Grade 1 2",[1],1 (8.3)
same,"Itching (intermittent), Grade 3+",[1],0 (0)
same,"Microvascular ischemic disease, All",[1],1 (8.3)
same,"Microvascular ischemic disease, Grade 1 2",[1],1 (8.3)
same,"Microvascular ischemic disease, Grade 3+",[1],0 (0)
same,"Pain (leg), All",[1],1 (8.3)
same,"Pain (leg), Grade 1 2",[1],1 (8.3)
same,"Pain (leg), Grade 3+",[1],0 (0)
same,"Retinal Detachment, All",[1],0 (0)
same,"Retinal Detachment, Grade 1 2",[1],0 (0)
same,"Retinal Detachment, Grade 3+",[1],0 (0)
same,"Steroid-induced hyperglycemia, All",[1],1 (8.3)
same,"Steroid-induced hyperglycemia, Grade 1 2",[1],1 (8.3)
same,"Steroid-induced hyperglycemia, Grade 3+",[1],0 (0)
same,"Symptomatic anemia, All",[1],1 (8.3)
same,"Symptomatic anemia, Grade 1 2",[1],0 (0)
same,"Symptomatic anemia, Grade 3+",[1],1 (8.3)
same,"lung fullness, All",[1],0 (0)
same,"lung fullness, Grade 1 2",[1],0 (0)
same,"lung fullness, Grade 3+",[1],0 (0)
same,"neuropathy (BLE), All",[1],1 (8.3)
same,"neuropathy (BLE), Grade 1 2",[1],1 (8.3)
same,"neuropathy (BLE), Grade 3+",[1],0 (0)
same,"pericarditis (intermittent), All",[1],1 (8.3)
same,"pericarditis (intermittent), Grade 1 2",[1],1 (8.3)
same,"pericarditis (intermittent), Grade 3+",[1],0 (0)
same,"Dry skin, All",[2],0 (0)
same,"Dry skin, Grade 1 2",[2],0 (0)
same,"Dry skin, Grade 3+",[2],0 (0)
same,"Ecchymosis, All",[2],4 (33.3)
same,"Ecchymosis, Grade 1 2",[2],4 (33.3)
same,"Ecchymosis, Grade 3+",[2],0 (0)
same,"Erythema nodosum, All",[2],1 (8.3)
same,"Erythema nodosum, Grade 1 2",[2],1 (8.3)
same,"Erythema nodosum, Grade 3+",[2],0 (0)
same,"Erythema, All",[2],0 (0)
same,"Erythema, Grade 1 2",[2],0 (0)
same,"Erythema, Grade 3+",[2],0 (0)
same,"Hyperhidrosis, All",[2],1 (8.3)
same,"Hyperhidrosis, Grade 1 2",[2],1 (8.3)
same,"Hyperhidrosis, Grade 3+",[2],0 (0)
same,"Nail discolouration, All",[2],0 (0)
same,"Nail discolouration, Grade 1 2",[2],0 (0)
same,"Nail discolouration, Grade 3+",[2],0 (0)
same,"Petechiae, All",[2],3 (25)
same,"Petechiae, Grade 1 2",[2],3 (25)
same,"Petechiae, Grade 3+",[2],0 (0)
same,"Photosensitivity reaction, All",[2],0 (0)
same,"Photosensitivity reaction, Grade 1 2",[2],0 (0)
same,"Photosensitivity reaction, Grade 3+",[2],0 (0)
same,"Pruritus, All",[2],0 (0)
same,"Pruritus, Grade 1 2",[2],0 (0)
same,"Pruritus, Grade 3+",[2],0 (0)
same,"Rash papular, All",[2],1 (8.3)
same,"Rash papular, Grade 1 2",[2],1 (8.3)
same,"Rash papular, Grade 3+",[2],0 (0)
same,"Rash, All",[2],1 (8.3)
same,"Rash, Grade 1 2",[2],1 (8.3)
same,"Rash, Grade 3+",[2],0 (0)
same,"Scab, All",[2],1 (8.3)
same,"Scab, Grade 1 2",[2],1 (8.3)
same,"Scab, Grade 3+",[2],0 (0)
same,"Skin disorder, All",[2],0 (0)
same,"Skin disorder, Grade 1 2",[2],0 (0)
same,"Skin disorder, Grade 3+",[2],0 (0)
same,"Skin lesion, All",[2],1 (8.3)
same,"Skin lesion, Grade 1 2",[2],1 (8.3)
same,"Skin lesion, Grade 3+",[2],0 (0)
same,"Swelling face, All",[2],1 (8.3)
same,"Swelling face, Grade 1 2",[2],1 (8.3)
same,"Swelling face, Grade 3+",[2],0 (0)
same,"Hypertension, All",[3],1 (8.3)
same,"Hypertension, Grade 1 2",[3],0 (0)
same,"Hypertension, Grade 3+",[3],1 (8.3)
same,"Hypotension, All",[3],1 (8.3)
same,"Hypotension, Grade 1 2",[3],0 (0)
same,"Hypotension, Grade 3+",[3],1 (8.3)
same,"Lymphoedema, All",[3],1 (8.3)
same,"Lymphoedema, Grade 1 2",[3],1 (8.3)
same,"Lymphoedema, Grade 3+",[3],0 (0)
same,"Peripheral venous disease, All",[3],1 (8.3)
same,"Peripheral venous disease, Grade 1 2",[3],1 (8.3)
same,"Peripheral venous disease, Grade 3+",[3],0 (0)
same,Serious AEs related to TP-0903,"all treated patients, TP-0903 + decitabine",no patients had serious AEs related to TP-0903; also recorded: no serious AEs attributable to TP-0903
same,"Diarrhea, grade 1 to 2 treatment-related AE (any grade)",[4],33%
same,"Fatigue, grade 3+ treatment-related AE",[4],6%
same,"Nausea, grade 1 to 2 treatment-related AE (any grade)",[4],47%
same,"Neutropenia, grade 3+ treatment-related AE",[4],33%
same,"Stomatitis, grade 3+ treatment-related AE",[4],6%
same,"Thrombocytopenia, grade 3+ treatment-related AE",[4],27%
same,Patients with treatment-related grade 3+ AEs,[4],47%
same,"Anemia, treatment-related AE grade ≥3",[5],2 (13.3) no. (%)
same,"Decreased appetite, treatment-related AE grade ≥3",[5],0 (0) no. (%)
same,"Febrile neutropenia, treatment-related AE grade ≥3",[5],0 (0) no. (%)
same,"Leukopenia, treatment-related AE grade ≥3",[5],3 (20) no. (%)
same,"Lymphocyte count decreased, treatment-related AE grade ≥3",[5],0 (0) no. (%)
same,"Neutropenia, treatment-related AE grade ≥3",[5],5 (33.3) no. (%)
same,"Pneumonia, treatment-related AE grade ≥3",[5],0 (0) no. (%)
same,"Thrombocytopenia, treatment-related AE grade ≥3",[5],4 (26.7) no. (%)
same,"Decreased appetite, grade 1 to 2 treatment-related AE (any grade)",[6],25%
same,"Decreased appetite, grade 3+ treatment-related AE",[6],8%
same,"Diarrhea, grade 1 to 2 treatment-related AE (any grade)",[6],25%
same,"Febrile neutropenia, grade 3+ treatment-related AE",[6],33%
same,"Leukopenia, grade 3+ treatment-related AE",[6],33%
same,"Lymphocyte count decrease, grade 3+ treatment-related AE",[6],42%
same,"Nausea, grade 1 to 2 treatment-related AE (any grade)",[6],42%
same,"Neutropenia, grade 3+ treatment-related AE",[6],50%
same,"Pneumonia, grade 3+ treatment-related AE",[6],8%
same,"Thrombocytopenia, grade 3+ treatment-related AE",[6],25%
same,Patients with treatment-related grade 3+ AEs,[6],58%
same,"Anemia, treatment-related AE grade ≥3",[7],1 (8.3) no. (%)
same,"Decreased appetite, treatment-related AE grade ≥3",[7],1 (8.3) no. (%)
same,"Fatigue, treatment-related AE grade ≥3",[7],0 (0) no. (%)
same,"Febrile neutropenia, treatment-related AE grade ≥3",[7],4 (33.3) no. (%)
same,"Leukopenia, treatment-related AE grade ≥3",[7],4 (33.3) no. (%)
same,"Lymphocyte count decreased, treatment-related AE grade ≥3",[7],5 (41.7) no. (%)
same,"Neutropenia, treatment-related AE grade ≥3",[7],6 (50) no. (%)
same,"Pneumonia, treatment-related AE grade ≥3",[7],1 (8.3) no. (%)
same,"Stomatitis, treatment-related AE grade ≥3",[7],0 (0) no. (%)
same,"Thrombocytopenia, treatment-related AE grade ≥3",[7],3 (25) no. (%)
same,"Anemia, treatment-related AE grade ≥3",[8],3 (11.1) no. (%)
same,"Decreased appetite, treatment-related AE grade ≥3",[8],1 (3.7) no. (%)
same,"Fatigue, treatment-related AE grade ≥3",[8],1 (3.7) no. (%)
same,"Febrile neutropenia, treatment-related AE grade ≥3",[8],4 (14.8) no. (%)
same,"Leukopenia, treatment-related AE grade ≥3",[8],7 (25.9) no. (%)
same,"Lymphocyte count decreased, treatment-related AE grade ≥3",[8],5 (18.5) no. (%)
same,"Neutropenia, treatment-related AE grade ≥3",[8],11 (40.7) no. (%)
same,"Pneumonia, treatment-related AE grade ≥3",[8],1 (3.7) no. (%)
same,"Stomatitis, treatment-related AE grade ≥3",[8],1 (3.7) no. (%)
same,"Thrombocytopenia, treatment-related AE grade ≥3",[8],7 (25.9) no. (%)
same,Dose-limiting toxicities (DLT),"phase 1b, DL1 37 mg TP-0903 + decitabine, six evaluable patients",No DLTs were observed
